Where “and” joins values, the source holds several entries; their conditions need not be identical. Equal entries are not always repeated.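 Protocol summary: plate cells (96-well), add compound at 5 concentrations, incubate 48 h, interpolate endpoints linearly. The concentration for 50% growth inhibition is given as GI50. The concentration for full growth arrest is given as TGI.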

The text below walks through data of PubChem BioAssay (NCI).

Some test systems named below: EKVX NSCLC; NCI-H226 lung; NCI-H460 lung; SNB-75 CNS; SNB-19 CNS; HCT-116 colon; RPMI-8226 leukemia; SK-MEL-28 melanoma; KM12 colon; SF-539 CNS.
Common to all, as to assay: NCI-60 cell line screen, 48 h

Take `O=c1c2cc(Cl)cc(Cl)c2oc2nc3n(c(=O)c12)CCCS3`: the TGI in the experiment with EKVX NSCLC, in the experiment on NCI-H226 lung, in the experiment with NCI-H460 lung, in the experiment with SNB-75 CNS, in the experiment on SNB-19 CNS and in the experiment with HCT-116 colon was greater than 100 µM each time. Moreover, the TGI in the experiment on RPMI-8226 leukemia, with SK-MEL-28 melanoma, in the experiment with KM12 colon and with SF-539 CNS was greater than 100 µM in each case.

`COC(=O)C(C/C=C(\C)c1ccc(Cl)cc1)C(C)=O` (stereo not given): the TGI with EKVX NSCLC is greater than 100 µM; in the experiment on NCI-H226 lung, greater than 91 µM; with NCI-H460 lung, greater than 100 µM; with SNB-75 CNS it was greater than 94.6 µM; in the experiment on SNB-19 CNS, greater than 100 µM; in the experiment on HCT-116 colon, greater than 100 µM. Moreover, the TGI with RPMI-8226 leukemia is greater than 69 µM; in the experiment with SK-MEL-28 melanoma, greater than 100 µM; in the experiment with KM12 colon it was greater than 100 µM; in the experiment on SF-539 CNS, greater than 100 µM.

As for `O=C(CSc1nc2ccc(I)cc2c(=O)n1Cc1ccccc1)NNC(=O)c1ccccc1`, the TGI is 17.9 µM in the experiment with EKVX NSCLC; 15.5 µM with NCI-H226 lung; greater than 100 µM in the experiment on NCI-H460 lung; 10.3 µM with SNB-75 CNS; 63.3 µM in the experiment with SNB-19 CNS; greater than 100 µM in the experiment with HCT-116 colon. Besides, the TGI with RPMI-8226 leukemia is 28 µM; in the experiment on SK-MEL-28 melanoma it was 36.6 µM; with KM12 colon, greater than 100 µM; in the experiment with SF-539 CNS it was 8.11 µM.

`O=C(CCCl)NNC1=NCCCN1`: the TGI with EKVX NSCLC, in the experiment with NCI-H226 lung, in the experiment with NCI-H460 lung, in the experiment with SNB-75 CNS, in the experiment with SNB-19 CNS and in the experiment on HCT-116 colon was greater than 100 µM throughout. For the same compound, the TGI with RPMI-8226 leukemia, in the experiment with SK-MEL-28 melanoma, in the experiment on KM12 colon and in the experiment with SF-539 CNS was greater than 100 µM throughout.

With `COC(=O)/C=C/C1(O)C=CC(=O)C=C1`, the TGI with EKVX NSCLC is 10.4 µM; with NCI-H226 lung it was 47.1 µM; in the experiment on NCI-H460 lung, greater than 61.7 µM; with SNB-75 CNS, 24 µM; in the experiment on SNB-19 CNS, 18.1 µM; in the experiment with HCT-116 colon, 3.73 µM. In addition, the TGI was greater than 100 µM with RPMI-8226 leukemia, greater than 19.8 µM in the experiment with SK-MEL-28 melanoma, 5.61 µM with KM12 colon and 4.45 µM with SF-539 CNS.

For the compound `CC1CCC2(CC1)NC1=C(CC(C)CC1)C1=C2CC(C)CC1` (stereo not given), the TGI in the experiment on EKVX NSCLC is greater than 100 µM; in the experiment on NCI-H226 lung, 30.8 µM; with NCI-H460 lung, 75.7 µM; with SNB-75 CNS, 59.7 µM; in the experiment with SNB-19 CNS, 78.2 µM; in the experiment with HCT-116 colon, 28 µM. Also, the TGI with RPMI-8226 leukemia came out at 55.6 µM; in the experiment on SK-MEL-28 melanoma, 35 µM; in the experiment with KM12 colon, 40.2 µM; with SF-539 CNS, 40.6 µM.

In the case of `C[C@@H](NC(=O)c1ccc(CNC(=O)/C=C/c2cccc(Oc3ccccc3)c2)cc1)c1ccccc1`, the TGI in the experiment with EKVX NSCLC is greater than 65.8 µM; with NCI-H226 lung, greater than 73.5 µM; in the experiment with NCI-H460 lung it was greater than 100 µM; in the experiment with SNB-75 CNS, 20.1 µM; with SNB-19 CNS, greater than 52.2 µM; in the experiment on HCT-116 colon it was greater than 100 µM. The TGI is greater than 100 µM in the experiment with RPMI-8226 leukemia, greater than 100 µM in the experiment with SK-MEL-28 melanoma, greater than 100 µM in the experiment with KM12 colon and 30.6 µM in the experiment on SF-539 CNS.

For the compound `CN1CCN(c2ccc3nc(-c4ccc5nc(-c6ccc(O)cc6)[nH]c5c4)[nH]c3c2)CC1`, the GI50 in the experiment on EKVX NSCLC is 257 µM; with NCI-H460 lung, 349 µM; with HCT-116 colon, 5.66 µM and 30.5 µM; with RPMI-8226 leukemia it was 183 µM; in the experiment on SK-MEL-28 melanoma, 18.8 µM. The TGI turned out to be 489 µM in the experiment on EKVX NSCLC; 792 µM with NCI-H226 lung; 714 µM in the experiment on NCI-H460 lung; 619 µM in the experiment on SNB-75 CNS; 909 µM with SNB-19 CNS; 512 µM in the experiment with HCT-116 colon. Besides, the TGI turned out to be 648 µM in the experiment with RPMI-8226 leukemia, 92.3 µM with SK-MEL-28 melanoma, 678 µM in the experiment on KM12 colon and 237 µM with SF-539 CNS.

Turning to `Cc1ccc2nc(C=Nc3ccc(Cl)cc3)cc(C)c2c1`, the TGI with EKVX NSCLC was greater than 100 µM; in the experiment with NCI-H226 lung, 72.7 µM; in the experiment on NCI-H460 lung, greater than 70.6 µM; in the experiment on SNB-75 CNS, 57.5 µM; in the experiment with SNB-19 CNS, greater than 100 µM; in the experiment with HCT-116 colon, 14.3 µM. For the same compound, the TGI with RPMI-8226 leukemia was greater than 51.3 µM; with SK-MEL-28 melanoma it was 36.4 µM; with KM12 colon it was 24.7 µM; with SF-539 CNS, 12.8 µM.

Regarding `CC(OC(=O)C(CC(=O)OC(C)(C)C)NC(=O)OC(C)(C)C)C(=O)OCc1ccccc1` (stereo not given), the TGI in the experiment on EKVX NSCLC, with NCI-H226 lung, with NCI-H460 lung, in the experiment with SNB-75 CNS, in the experiment on SNB-19 CNS and in the experiment with HCT-116 colon was greater than 100 µM each time. Besides, the TGI with RPMI-8226 leukemia, with SK-MEL-28 melanoma, in the experiment on KM12 colon and with SF-539 CNS was greater than 100 µM throughout.

On to `CC(=O)C1=C(C)N(c2ccc(C)cc2)C2(O)C3=C(C(=O)c4ccccc4C3=O)C(O)=CC12Cl` (stereo not given), for which the TGI with EKVX NSCLC was greater than 100 µM; in the experiment with NCI-H226 lung it was greater than 100 µM; with NCI-H460 lung, greater than 100 µM; in the experiment with SNB-75 CNS, greater than 100 µM; with SNB-19 CNS, 35.8 µM; with HCT-116 colon it was greater than 100 µM. Also, the TGI in the experiment on RPMI-8226 leukemia is greater than 100 µM; in the experiment on SK-MEL-28 melanoma, 79.4 µM; with KM12 colon it was 33.8 µM; in the experiment with SF-539 CNS, greater than 100 µM.

On to `CCCCCC/C=C1\CCC(CN2CCOCC2)C1=O` (stereo not given), for which the TGI with EKVX NSCLC is 19.1 µM; in the experiment on NCI-H226 lung it was 30 µM; with NCI-H460 lung, greater than 66 µM; in the experiment with SNB-75 CNS, 42.3 µM; in the experiment on SNB-19 CNS it was 38.9 µM; in the experiment with HCT-116 colon it was 27.7 µM. Besides, the TGI is greater than 100 µM in the experiment on RPMI-8226 leukemia, 30.7 µM with SK-MEL-28 melanoma, 24.7 µM with KM12 colon and 31.2 µM in the experiment with SF-539 CNS.
